{"source": "patent US12138398B2", "about": "“Methods and devices for providing a stimulus to a subject to induce gamma oscillations” (Massachusetts Institute of Technology, priority 2015, dated 2024)", "key": {"AD patients": {"test_system": "AD patients", "conditions": "cited from earlier work"}, "[1]": {"test_system": "organotypic hippocampal slices prepared from transgenic (Tg) mice overexpressing APP", "conditions": "cited from earlier work"}, "[2]": {"test_system": "Aβ1-40 and Aβ1-42 levels in 5×FAD visual cortex", "assay": "Aβ ELISA of visual cortex after one hour 40-Hz light flicker with picrotoxin pretreatment", "type": "in vivo, mouse", "excerpt": "FIGS. 47A and 47B are bar graphs depicting changes in baseline levels of Aβ1-40 and Aβ1-42, respectively, in 5×FAD visual cortex in dark, light, 40-Hz flicker, 20-Hz flicker, 80-Hz flicker, 40-Hz flicker with picrotoxin (PTX) and Random flicker conditions in accordance with some embodiments (n=12 mice per group for dark; n=6 mice per group for light, 40-Hz flicker, 20-Hz flicker, 80-Hz flicker, and PTX; n=4 mice per group for Random flicker; “n.s.” indicates not significant, one asterisk indicates p<0.05, and two asterisks indicate p<0.01 by one-way ANOVA). FIGS. 47 and 47B show mean and SEM. Circles superimposed on bars in the bar graphs indicate individual data points in each group. Following one hour after light exposure, it was observed that Aβ1-40 levels in visual cortex were reduced by 57.96% and Aβ1-42 levels by 57.97% compared to the dark condition (as measured by Aβ ELISA, see, e.g., FIGS. 47A and 47B, p<0.05 by one-way ANOVA, n=6 mice per group). Compared to light controls, amyloid levels were reduced by 62.47% (Aβ1-40) and 68.55% (Aβ1-42) following one hour of 40-Hz flicker (as measured by Aβ ELISA, see, e.g., FIG. 4′7, p<0.05 by one-way ANOVA, n=6 mice per group). […]\nFifteen minutes prior to the experiment 5×FAD mice were treated with saline (Control) or picrotoxin (0.18 mg/kg). For molecular and biochemical analyses mice were then placed in a dark chamber illuminated by an LED bulb and exposed to one of five stimulation conditions: dark, light, 20-Hz flicker, 40-Hz flicker, or 80-Hz flicker (12.5 ms light on, 12.5 ms light off) for one hour (see, e.g., FIG. 43A). For electrophysiological recordings each animal received dark, light, 40-Hz flicker, or random (light pulses were delivered with a random interval determined by a Poisson process with an average interval of 40 Hz) stimulation conditions interleaved in 10 s blocks during recordings. […]"}, "[3]": {"conditions": "5×FAD visual cortex (VC), 40 Hz flicker one hour + PTX (0.18 mg/kg pretreatment), ELISA dilution 1:2, individual mice"}}, "note": "Where “and” joins values, the source holds several entries; their conditions need not be identical. Equal entries are not always repeated. Where two headings read alike, the source gives them in different places.", "data": [{"compound": "COc1cc2c(cc1OC)C(=O)C(CC1CCN(Cc3ccccc3)CC1)C2", "note": "(stereo not drawn) [donepezil]", "values": [{"measurement": "clinical outcome on cognition", "setting": "AD patients; human, in vivo", "result": "only mild cognitive benefits"}]}, {"compound": "CCN(C)C(=O)Oc1cccc([C@H](C)N(C)C)c1", "note": "[rivastigmine]", "values": [{"measurement": "clinical outcome on cognition", "setting": "AD patients; AD subjects", "result": "only mild cognitive benefits"}]}, {"compound": "CC(C)[C@H](O)C(=O)N[C@@H](C)C(=O)N[C@@H]1C(=O)N(C)CCc2ccccc21", "note": "[semagacestat]", "values": [{"measurement": "clinical outcome on cognition", "setting": "AD patients; AD subjects", "result": "worsening of cognitive deficits"}]}, {"compound": "NC1=N[C@H](O)[C@H]2[C@H]3O[C@]4(O)O[C@@H]([C@@H](O)[C@@]2(N1)[C@@H]4O)[C@]3(O)CO", "note": "[tetrodotoxin]", "values": [{"measurement": "Aβ levels", "setting": "[1]", "result": "decreased"}, {"measurement": "neuronal activity", "setting": "[1]", "result": "decreased"}]}, {"compound": "picrotoxin [PTX]", "values": [{"measurement": "effects of 40-Hz flicker on Aβ levels after picrotoxin pretreatment", "setting": "[2]; 5×FAD mice, picrotoxin 0.18 mg/kg", "result": "completely abrogated"}, {"measurement": "Average Aβ1-40 Concentration", "setting": "[2]; [3]", "result": "367.2 pg/ml and 431.4 pg/ml and 445.2 pg/ml (2×) and 392.4 pg/ml and 386.7 pg/ml"}, {"measurement": "Aβ1-42 concentration", "setting": "[2]; [3]", "result": "396.6 pg/ml and 540.5 pg/ml and 532.7 pg/ml and 705.0 pg/ml and 104.5 pg/ml (2×)"}, {"measurement": "neuronal activity", "setting": "[1]; organotypic hippocampal slices, APP Tg mice", "result": "increased neuronal activity"}]}]}
